Measurements taken from ChEMBL document CHEMBL3046472, “QSAR modeling of photosynthesis-inhibiting nostoclide derivatives” (Pest Manag Sci, 2010).
Activity calls are given as the source filed them. The rule behind the calls is not given here.

Biological target: Cytochrome b6-f complex subunit 4 (Spinacia oleracea) (UniProt P00166)
Assay: Inhibition of photosynthetic electron transport protein complex in Spinacia oleracea (spinach) leaf thylakoid membranes up to 100 uM measured at 30 seconds intervals for 10 min

Chain of Cytochrome b6-f complex subunit 4 (Spinacia oleracea) (P00166 whole entry, looked up, one chain of several): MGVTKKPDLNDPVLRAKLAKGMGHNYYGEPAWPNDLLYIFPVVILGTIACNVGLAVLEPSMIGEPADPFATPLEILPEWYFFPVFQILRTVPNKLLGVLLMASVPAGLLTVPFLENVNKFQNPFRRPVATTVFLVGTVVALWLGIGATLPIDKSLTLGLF

SMILES: COc1ccc(/C=C2/C=C(Cc3ccccc3)C(=O)O2)cc1O
- inhibition: inactive

SMILES: N#Cc1cccc(/C=C2/C=C(Cc3ccccc3)C(=O)O2)c1
- inhibition: inactive

SMILES: Cc1ccc(/C=C2/C=C(Cc3ccccc3)C(=O)O2)cc1
- inhibition: inactive

SMILES: O=C1O/C(=C\c2ccc(Br)cc2)C=C1Cc1ccccc1
- inhibition: inactive

SMILES: O=C1O/C(=C\c2ccccc2O)C=C1Cc1ccccc1
- inhibition: inactive

SMILES: O=C1O/C(=C\c2ccc(O)cc2)C=C1Cc1ccccc1
- inhibition: inactive

SMILES: CN(C)c1ccc(/C=C2/C=C(Cc3ccccc3)C(=O)O2)c(Cl)c1
- inhibition: inactive

SMILES: O=C1O/C(=C\c2ccc(Cl)cc2)C=C1Cc1ccccc1
- inhibition: inactive

SMILES: O=C1O/C(=C\c2ccc3c(c2)OCO3)C=C1Cc1ccccc1
- inhibition: inactive

SMILES: O=C1O/C(=C\c2ccc(-c3ccccc3)cc2)C=C1Cc1ccccc1
- inhibition: inactive

SMILES: CN(C)c1ccc(/C=C2/C=C(Cc3ccccc3)C(=O)O2)cc1
- inhibition: inactive

SMILES: N#Cc1ccc(/C=C2/C=C(Cc3ccccc3)C(=O)O2)cc1
- inhibition: inactive

SMILES: O=C1O/C(=C\c2cccc(O)c2)C=C1Cc1ccccc1
- inhibition: inactive
